Common to all, as to assay type: cell-based
The target in one test is T1, αvβ1 (Homo sapiens, UniProt P05556+P06756).
T1 construct: host or cells: A549-αvβ1
Put plainly: Cell Adhesion Assay αvβ1. The settings on record: A549-αvβ1 cells, ligand LAP-b1, 2 mM MgCl2; read-out: mean affinity (pIC50) αvβ1 (converted). The protocol:
(§1) The following cell lines are used, with ligands in brackets: K562-αvβ3 (LAP-b1), K562-αvβ5 (Vitronectin), K562-αvβ6 (LAP-b1), K562-αvβ8 (LAP-b1), A549-αvβ1 (LAP-b1). The divalent cation used to facilitate adhesion is 2 mM MgCl2. Adhesion is quantified by cell labelling with the fluorescent dye BCECF-AM (Life Technologies), where cell suspensions at 3×10^6cells/nnL are incubated with 0.33 uL/mL of 30 mM BCECF-AM at 37° C. for 10 minutes, then 50 μL/well are dispensed into the 96-well assay plate. At the assay conclusion cells that adhered are lysed using 50 μL/well of 0.5% Triton X-100 in H2O to release fluorescence. Fluorescence intensity is detected using an Envision® plate reader (Perkin Elmer). For active antagonists in the assay, data is fitted to a 4 parameter logistic equation for IC50 determinations.
(§2) Those of skill in the art will recognise that in vitro binding assays and cell-based assays for functional activity are subject to experimental variability.

Another test addresses T2, αvβ3 (Homo sapiens, UniProt P05106+P06756).
T2 construct: expressed in transfected cells; host or cells: K562-αvβ3
Kind of test: Cell Adhesion Assay αvβ3. The conditions noted are these: K562-αvβ3 cells, ligand LAP-b1, 2 mM MgCl2; read-out: mean affinity (pIC50) αvβ3 (converted). The protocol: as §1, §2

The target of the next test is T3, αvβ5 (Homo sapiens, UniProt P06756+P18084).
T3 construct: expressed in transfected cells; host or cells: K562-αvβ5
T3 sequence (P06756 31-889 limits assumed): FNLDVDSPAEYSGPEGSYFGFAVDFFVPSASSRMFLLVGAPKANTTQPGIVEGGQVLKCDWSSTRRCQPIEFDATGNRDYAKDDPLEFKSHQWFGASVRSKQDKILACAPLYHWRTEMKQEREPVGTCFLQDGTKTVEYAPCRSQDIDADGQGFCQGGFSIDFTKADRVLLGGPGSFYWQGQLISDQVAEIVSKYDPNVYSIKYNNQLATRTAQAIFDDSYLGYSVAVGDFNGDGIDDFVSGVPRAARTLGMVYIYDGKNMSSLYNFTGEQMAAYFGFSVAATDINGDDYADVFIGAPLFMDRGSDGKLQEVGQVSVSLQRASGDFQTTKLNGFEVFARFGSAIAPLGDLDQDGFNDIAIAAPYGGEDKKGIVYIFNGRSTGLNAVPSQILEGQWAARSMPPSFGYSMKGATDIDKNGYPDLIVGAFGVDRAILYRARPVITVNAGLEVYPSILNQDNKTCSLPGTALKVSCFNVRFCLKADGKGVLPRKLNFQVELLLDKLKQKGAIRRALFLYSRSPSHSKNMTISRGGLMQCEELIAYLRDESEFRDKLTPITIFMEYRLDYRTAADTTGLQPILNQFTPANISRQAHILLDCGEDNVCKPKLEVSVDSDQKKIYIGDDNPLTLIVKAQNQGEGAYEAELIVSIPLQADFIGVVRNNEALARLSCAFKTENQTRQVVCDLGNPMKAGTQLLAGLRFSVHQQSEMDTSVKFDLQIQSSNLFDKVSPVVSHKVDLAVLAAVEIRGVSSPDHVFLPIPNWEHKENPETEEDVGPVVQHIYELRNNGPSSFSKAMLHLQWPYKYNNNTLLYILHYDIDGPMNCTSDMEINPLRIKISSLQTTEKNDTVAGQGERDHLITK
T3 sequence (P06756 891-1048 partner limits assumed): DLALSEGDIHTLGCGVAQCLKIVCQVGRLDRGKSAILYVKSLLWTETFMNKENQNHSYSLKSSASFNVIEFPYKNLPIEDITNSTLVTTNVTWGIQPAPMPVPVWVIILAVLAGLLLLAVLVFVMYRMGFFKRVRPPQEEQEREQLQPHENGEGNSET
T3 sequence (P18084 24-799): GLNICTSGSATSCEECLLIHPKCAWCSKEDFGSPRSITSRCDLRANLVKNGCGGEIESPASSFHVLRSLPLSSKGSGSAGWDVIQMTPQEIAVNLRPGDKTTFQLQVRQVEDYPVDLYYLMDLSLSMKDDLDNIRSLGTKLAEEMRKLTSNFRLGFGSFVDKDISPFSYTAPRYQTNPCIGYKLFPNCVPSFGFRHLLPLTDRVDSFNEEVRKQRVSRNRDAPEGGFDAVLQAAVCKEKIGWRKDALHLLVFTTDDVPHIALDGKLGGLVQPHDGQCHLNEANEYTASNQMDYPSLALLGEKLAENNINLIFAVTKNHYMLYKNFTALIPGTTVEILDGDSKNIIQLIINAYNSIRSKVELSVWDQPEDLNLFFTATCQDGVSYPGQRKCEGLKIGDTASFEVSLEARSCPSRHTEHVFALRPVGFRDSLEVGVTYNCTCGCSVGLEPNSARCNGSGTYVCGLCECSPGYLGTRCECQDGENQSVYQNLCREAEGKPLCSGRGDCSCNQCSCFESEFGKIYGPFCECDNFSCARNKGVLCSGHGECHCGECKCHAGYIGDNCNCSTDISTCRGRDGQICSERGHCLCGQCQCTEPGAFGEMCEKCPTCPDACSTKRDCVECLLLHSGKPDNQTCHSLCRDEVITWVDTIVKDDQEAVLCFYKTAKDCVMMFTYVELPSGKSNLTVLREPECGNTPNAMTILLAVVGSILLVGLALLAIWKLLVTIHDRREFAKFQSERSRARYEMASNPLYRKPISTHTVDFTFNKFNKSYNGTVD
Kind of test: Cell Adhesion Assay αvβ5. The conditions noted are these: K562-αvβ5 cells, ligand Vitronectin, 2 mM MgCl2; read-out: mean affinity (pIC50) αvβ5 (converted). The protocol: as §1, §2

A further test has as its target T4, αvβ6 (Homo sapiens, UniProt P06756+P18564).
T4 construct: expressed in transfected cells; host or cells: K562-αvβ6
Put plainly: Cell Adhesion Assay αvβ6. The settings on record: K562-αvβ6 cells, ligand LAP-b1, 2 mM MgCl2; read-out: mean affinity (pIC50) αvβ6 (converted). The protocol: as §1, §2

Another test addresses T5, αvβ8 (Homo sapiens, UniProt P06756+P26012).
T5 construct: expressed in transfected cells; host or cells: K562-αvβ8
Kind of test: Cell Adhesion Assay αvβ8. The settings on record: K562-αvβ8 cells, ligand LAP-b1, 2 mM MgCl2; read-out: mean affinity (pIC50) αvβ8 (converted). The protocol:
as §1, §2

16 compounds from patent US10487080B2, “Naphthyridines as integrin antagonists” (GlaxoSmithKline Intellectual Property Development Limited, priority 2016, dated 2019) can be followed below.

T2 sequence (P06756 31-889 limits assumed): as the sequence (P06756 31-889 limits assumed) above
T2 sequence (P06756 891-1048 partner limits assumed): as the sequence (P06756 891-1048 partner limits assumed) above
T2 sequence (P05106 27-788): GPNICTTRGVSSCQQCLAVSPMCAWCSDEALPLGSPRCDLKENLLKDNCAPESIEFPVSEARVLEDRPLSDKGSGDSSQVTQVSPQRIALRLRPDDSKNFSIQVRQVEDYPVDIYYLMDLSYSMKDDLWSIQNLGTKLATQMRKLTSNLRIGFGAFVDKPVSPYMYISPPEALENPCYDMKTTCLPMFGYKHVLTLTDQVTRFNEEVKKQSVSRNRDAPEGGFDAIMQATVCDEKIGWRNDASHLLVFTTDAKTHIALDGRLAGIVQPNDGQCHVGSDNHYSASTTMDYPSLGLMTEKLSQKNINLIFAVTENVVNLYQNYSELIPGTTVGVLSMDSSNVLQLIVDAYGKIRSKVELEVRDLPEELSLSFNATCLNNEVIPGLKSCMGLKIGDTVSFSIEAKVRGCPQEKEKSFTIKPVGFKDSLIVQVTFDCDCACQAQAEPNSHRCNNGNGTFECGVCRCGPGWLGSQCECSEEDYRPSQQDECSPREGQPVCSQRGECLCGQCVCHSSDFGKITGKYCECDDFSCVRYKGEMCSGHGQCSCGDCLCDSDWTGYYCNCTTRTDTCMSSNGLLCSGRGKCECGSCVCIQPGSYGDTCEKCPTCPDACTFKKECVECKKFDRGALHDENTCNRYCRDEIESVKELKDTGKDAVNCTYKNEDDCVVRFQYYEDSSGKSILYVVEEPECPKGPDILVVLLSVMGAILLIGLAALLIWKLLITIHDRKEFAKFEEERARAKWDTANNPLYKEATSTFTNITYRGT
T1 sequence (P06756 31-889 limits assumed): as the sequence (P06756 31-889 limits assumed) above
T1 sequence (P06756 891-1048 partner limits assumed): as the sequence (P06756 891-1048 partner limits assumed) above
T1 sequence (P05556 21-798): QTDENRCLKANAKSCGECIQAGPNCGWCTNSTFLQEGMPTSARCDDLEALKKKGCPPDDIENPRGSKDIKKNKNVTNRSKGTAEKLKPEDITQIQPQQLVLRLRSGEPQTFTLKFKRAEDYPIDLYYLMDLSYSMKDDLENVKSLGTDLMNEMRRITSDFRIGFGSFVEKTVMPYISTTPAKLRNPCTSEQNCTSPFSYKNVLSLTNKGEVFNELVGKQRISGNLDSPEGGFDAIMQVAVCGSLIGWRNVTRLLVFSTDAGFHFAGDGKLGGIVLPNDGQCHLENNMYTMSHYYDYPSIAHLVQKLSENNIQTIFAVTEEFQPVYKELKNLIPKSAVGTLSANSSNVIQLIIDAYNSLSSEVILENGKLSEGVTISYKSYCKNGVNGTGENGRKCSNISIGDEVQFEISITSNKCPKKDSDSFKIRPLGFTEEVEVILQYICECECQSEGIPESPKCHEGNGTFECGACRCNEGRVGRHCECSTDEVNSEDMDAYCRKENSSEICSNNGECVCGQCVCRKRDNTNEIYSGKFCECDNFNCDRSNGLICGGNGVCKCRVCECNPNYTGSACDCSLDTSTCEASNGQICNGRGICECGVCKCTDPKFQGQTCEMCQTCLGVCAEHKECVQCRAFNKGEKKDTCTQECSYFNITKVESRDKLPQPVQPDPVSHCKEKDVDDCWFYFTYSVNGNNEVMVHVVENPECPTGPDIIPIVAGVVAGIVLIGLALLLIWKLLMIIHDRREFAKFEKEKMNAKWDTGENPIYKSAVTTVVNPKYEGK
T4 sequence (P06756 31-889 limits assumed): as the sequence (P06756 31-889 limits assumed) above
T4 sequence (P06756 891-1048 partner limits assumed): as the sequence (P06756 891-1048 partner limits assumed) above
T4 sequence (P18564 22-788): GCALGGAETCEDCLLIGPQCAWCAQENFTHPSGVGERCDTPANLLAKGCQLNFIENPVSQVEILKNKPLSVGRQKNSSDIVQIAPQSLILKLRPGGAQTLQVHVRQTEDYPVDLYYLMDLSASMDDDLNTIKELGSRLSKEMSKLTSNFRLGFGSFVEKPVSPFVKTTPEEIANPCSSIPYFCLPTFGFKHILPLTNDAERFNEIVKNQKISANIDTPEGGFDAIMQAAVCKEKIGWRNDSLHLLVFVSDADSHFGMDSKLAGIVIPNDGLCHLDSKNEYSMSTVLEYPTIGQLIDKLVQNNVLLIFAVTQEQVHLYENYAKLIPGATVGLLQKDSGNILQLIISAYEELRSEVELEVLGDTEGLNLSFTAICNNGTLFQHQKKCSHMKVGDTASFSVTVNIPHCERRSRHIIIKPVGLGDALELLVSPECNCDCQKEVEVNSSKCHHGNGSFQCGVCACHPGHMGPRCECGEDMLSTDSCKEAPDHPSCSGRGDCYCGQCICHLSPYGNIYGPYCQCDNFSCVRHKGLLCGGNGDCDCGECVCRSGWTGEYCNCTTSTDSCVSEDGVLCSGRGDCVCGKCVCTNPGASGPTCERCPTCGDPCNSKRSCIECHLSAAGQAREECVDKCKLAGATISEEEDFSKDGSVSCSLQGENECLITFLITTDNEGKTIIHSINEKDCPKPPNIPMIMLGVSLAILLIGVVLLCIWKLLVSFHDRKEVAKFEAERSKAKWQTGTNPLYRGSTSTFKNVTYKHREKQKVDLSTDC

Take `COC[C@H](C)Oc1cccc(C(CC(=O)O)CN2CC[C@@H](CCc3ccc4c(n3)NCCC4)C2)c1` (single isomer, unassigned) [Example 5]: the results for the IC50 at αvβ1 and at αvβ3 were 251 nM and 3160 nM, respectively.
As to `COCCOc1cccc([C@H](CC(=O)O)CN2CC[C@@H](CCc3ccc4c(n3)NCCC4)C2)c1` [Example 1, (S)-3-(3-(2-methoxyethoxy)phenyl)-4-((R)-3-(2-(5,6,7,8-tetrahydro-1,8-naphthyridin-2-yl)ethyl)pyrrolidin-1-yl)butanoic acid], the values for the IC50 on αvβ1, on αvβ5 and on αvβ6 were 158 nM, 10 nM and 3.16 nM, respectively.
Consider `CO[C@H](C)COc1cccc([C@H](CC(=O)O)CN2CC[C@@H](CCc3ccc4c(n3)NCCC4)C2)c1` [Example 2, (S)-3-(3-((R)-2-methoxypropoxy)phenyl)-4-((R)-3-(2-(5,6,7,8-tetrahydro-1,8-naphthyridin-2-yl)ethyl)pyrrolidin-1-yl)butanoic acid], for which the IC50 was 100 nM on αvβ1, 63.1 nM at αvβ3, 15.8 nM at αvβ5 and 2.51 nM at αvβ6.
In the case of `CO[C@@H](C)COc1cccc([C@H](CC(=O)O)CN2CC[C@@H](CCc3ccc4c(n3)NCCC4)C2)c1` [Example 3, (S)-3-(3-((S)-2-methoxypropoxy)phenyl)-4-((R)-3-(2-(5,6,7,8-tetrahydro-1,8-naphthyridin-2-yl)ethyl)pyrrolidin-1-yl)butanoic acid], the IC50 on αvβ1 is 126 nM; on αvβ8, 15.8 nM; on αvβ5 it was 15.8 nM; at αvβ6 it was 2.51 nM.
`COC(C)(C)COc1cccc([C@H](CC(=O)O)CN2CC[C@@H](CCc3ccc4c(n3)NCCC4)C2)c1` [Example 4, (S)-3-(3-(2-methoxy-2-methylpropoxy)phenyl)-4-((R)-3-(2-(5,6,7,8-tetrahydro-1,8-naphthyridin-2-yl)ethyl)pyrrolidin-1-yl)butanoic acid]: the IC50 on αvβ1 was 158 nM; on αvβ8, 15.8 nM; on αvβ3, 200 nM.
Turning to `COCCOc1cc(OCCOC)cc([C@H](CC(=O)O)CN2CC[C@@H](CCc3ccc4c(n3)NCCC4)C2)c1` [Example 8, (S)-3-(3,5-Bis(2-methoxyethoxy)phenyl)-4-((R)-3-(2-(5,6,7,8-tetrahydro-1,8-naphthyridin-2-yl)ethyl)pyrrolidin-1-yl)butanoic acid], the IC50 at αvβ1 is 200 nM; on αvβ8 it was 20 nM; at αvβ3 it was 126 nM; on αvβ5 it was 31.6 nM; on αvβ6 it was 3.16 nM.
With `COCC(C)(C)Oc1cccc([C@H](CC(=O)O)CN2CC[C@@H](CCc3ccc4c(n3)NCCC4)C2)c1` [Example 11], the IC50 was 50.1 nM on αvβ1, 15.8 nM at αvβ8, 316 nM at αvβ3 and 63.1 nM at αvβ5.
`COC[C@@H](C)Oc1cccc([C@H](CC(=O)O)CN2CC[C@@H](CCc3ccc4c(n3)NCCC4)C2)c1` [Example 12, (S)-3-(3-(((R)-1-methoxypropan-2-yl)oxy)phenyl)-4-((R)-3-(2-(5,6,7,8-tetrahydro-1,8-naphthyridin-2-yl)ethyl)pyrrolidin-1-yl)butanoic acid]: the figures for the IC50 on αvβ3 and at αvβ5 were 251 nM and 63.1 nM, respectively.
In the case of `CC(C)OCCOc1cccc([C@H](CC(=O)O)CN2CC[C@@H](CCc3ccc4c(n3)NCCC4)C2)c1` [Example 13, (S)-3-(3-(2-Isopropoxyethoxy)phenyl)-4-((R)-3-(2-(5,6,7,8-tetrahydro-1,8-naphthyridin-2-yl)ethyl)pyrrolidin-1-yl)butanoic acid], the IC50 on αvβ8 was 20 nM; at αvβ3 it was 100 nM; at αvβ5, 31.6 nM; at αvβ6 it was 10 nM.
As to `O=C(O)C[C@H](CN1CC[C@@H](CCc2ccc3c(n2)NCCC3)C1)c1cccc(OC[C@H]2CCCO2)c1` [Example 14, (S)-4-((R)-3-(2-(5,6,7,8-Tetrahydro-1,8-naphthyridin-2-yl)ethyl)pyrrolidin-1-yl)-3-(3-(((R)-tetrahydrofuran-2-yl)methoxy)phenyl)butanoic acid], the IC50 at αvβ1 was 398 nM; on αvβ8, 20 nM; at αvβ3, 79.4 nM; on αvβ5, 39.8 nM; on αvβ6, 5.01 nM.
As to `O=C(O)C[C@H](CN1CC[C@@H](CCc2ccc3c(n2)NCCC3)C1)c1cccc(OC[C@@H]2CCCO2)c1` [Example 15, (S)-4-((R)-3-(2-(5,6,7,8-tetrahydro-1,8-naphthyridin-2-yl)ethyl)pyrrolidin-1-yl)-3-(3-(((S)-tetra hydrofuran-2-yl)methoxy)phenyl)butanoic acid], the IC50 on αvβ1 is 501 nM; on αvβ8, 39.8 nM; on αvβ3, 100 nM; at αvβ5 it was 39.8 nM; on αvβ6, 5.01 nM.
Regarding `COCCOc1ccc(F)c([C@H](CC(=O)O)CN2CC[C@@H](CCc3ccc4c(n3)NCCC4)C2)c1` [Example 16, (S)-3-(2-Fluoro-5-(2-methoxyethoxy)phenyl)-4-((R)-3-(2-(5,6,7,8-tetrahydro-1,8-naphthyridin-2-yl)ethyl)pyrrolidin-1-yl)butanoic acid], the IC50 at αvβ8 was 100 nM; on αvβ6, 7.94 nM.
On to `COCC(COC)Oc1cccc(C(CC(=O)O)CN2CC[C@@H](CCc3ccc4c(n3)NCCC4)C2)c1` (stereo partly drawn) [Example 17, 3-(3-((1,3-Dimethoxypropan-2-yl)oxy)phenyl)-4-((R)-3-(2-(5,6,7,8-tetrahydro-1,8-naphthyridin-2-yl)ethyl)pyrrolidin-1-yl)butanoic acid], for which the IC50 on αvβ8 was 20 nM; on αvβ3, 398 nM; at αvβ6, 12.6 nM.
With `COCCOc1cc(OCCF)cc(C(CC(=O)O)CN2CC[C@@H](CCc3ccc4c(n3)NCCC4)C2)c1` (stereo partly drawn) [Example 18, 3-(3-(2-Fluoroethoxy)-5-(2-methoxyethoxy)phenyl)-4-((R)-3-(2-(5,6,7,8-tetrahydro-1,8-naphthyridin-2-yl)ethyl)pyrrolidin-1-yl)butanoic acid], the IC50 on αvβ1 is 200 nM; at αvβ8 it was 25.1 nM; on αvβ3, 398 nM; at αvβ6, 5.01 nM.
With `COCCCOc1cccc(C(CC(=O)O)CN2CC[C@@H](CCc3ccc4c(n3)NCCC4)C2)c1` (stereo partly drawn) [Example 19, 3-(3-(3-Methoxypropoxy)phenyl)-4-((R)-3-(2-(5,6,7,8-tetrahydro-1,8-naphthyridin-2-yl)ethyl)pyrrolidin-1-yl)butanoic acid], the IC50 on αvβ8 is 12.6 nM; on αvβ3, 158 nM; on αvβ5, 63.1 nM; on αvβ6 it was 10 nM.
As for `O=C(O)CC(CN1CC[C@@H](CCc2ccc3c(n2)NCCC3)C1)c1cccc(OCC2COC2)c1` (stereo partly drawn) [Example 20, 3-(3-(Oxetan-3-ylmethoxy)phenyl)-4-((R)-3-(2-(5,6,7,8-tetrahydro-1,8-naphthyridin-2-yl)ethyl)pyrrolidin-1-yl)butanoic acid], the IC50 was 20 nM on αvβ8, 398 nM at αvβ3 and 7.94 nM on αvβ6.
